How the values were obtained:
11 β-HSD type 1 = biological target: T1, 11 β-HSD type 1 (Rattus norvegicus, UniProt P16232); assay: biochemical; format: biochemical; settings: rat liver cytosol 25 μL, 90 min, 37° C., cortisone (E) to cortisol (F), vs control without inhibitor, means n=2; for inhibition at 10 µM: read-out: % […]→F ± SD, inhibitor 10 μM, read-out: % INHIBITION E→F ± SD
T1 construct: Both the kidneys and livers were homogenised on ice in PBS- sucrose buffer; tissue Harlan Olac, Bicester, Oxon, UK (rats); host or cells: rat liver homogenate supernatant (Wistar rat)
T1 sequence (P16232 whole entry): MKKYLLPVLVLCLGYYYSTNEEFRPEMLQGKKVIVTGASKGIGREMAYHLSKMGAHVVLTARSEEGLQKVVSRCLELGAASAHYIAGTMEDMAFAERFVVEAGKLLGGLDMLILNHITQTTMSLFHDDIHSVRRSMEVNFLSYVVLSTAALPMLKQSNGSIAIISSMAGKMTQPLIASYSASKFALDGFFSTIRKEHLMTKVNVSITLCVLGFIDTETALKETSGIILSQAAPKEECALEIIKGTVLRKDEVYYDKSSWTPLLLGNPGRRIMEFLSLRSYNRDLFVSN

11 β-HSD type 2 = biological target: T2, 11 β-HSD type 2 (Rattus norvegicus, UniProt P50233); assay: biochemical; settings: rat kidney cytosol 150 μL, 60 min, 37° C., cortisol (F) to cortisone (E), vs control without inhibitor, means n=2; for inhibition at 10 µM: read-out: % […]→E ± SD, inhibitor 10 μM, read-out: % INHIBITION F→E ± SD
T2 construct: Both the kidneys and livers were homogenised on ice in PBS- sucrose buffer; tissue Harlan Olac, Bicester, Oxon, UK (rats); host or cells: rat kidney homogenate supernatant (Wistar rat)
T2 sequence (P50233 1-400): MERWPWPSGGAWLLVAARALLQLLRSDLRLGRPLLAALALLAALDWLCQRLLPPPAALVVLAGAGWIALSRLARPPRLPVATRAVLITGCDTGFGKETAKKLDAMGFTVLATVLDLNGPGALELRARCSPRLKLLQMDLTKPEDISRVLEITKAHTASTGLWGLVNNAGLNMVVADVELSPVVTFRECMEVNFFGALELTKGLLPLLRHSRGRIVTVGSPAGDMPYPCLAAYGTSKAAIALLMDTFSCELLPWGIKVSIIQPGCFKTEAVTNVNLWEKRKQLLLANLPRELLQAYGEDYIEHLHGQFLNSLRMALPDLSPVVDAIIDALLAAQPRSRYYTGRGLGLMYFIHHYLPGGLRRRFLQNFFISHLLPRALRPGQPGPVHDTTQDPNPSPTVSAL
Experimental: Enzymes—Rat livers and rat kidneys were obtained from normal Wistar rats (Harlan Olac, Bicester, Oxon,UK). Both the kidneys and livers were homogenised on ice in PBS- sucrose buffer (1 g/10 ml) using an Ultra-Turrax. After the livers and kidneys were homogenised the homogenate was centrifuged for five minutes at 4000 rpm. The supernatant obtained was removed and stored in glass vials at −20° C. The amount of protein per μl of rat liver and kidney cytosol was determined using the Bradford method.
The same procedure was used for the 11 β-HSD type 2 assay, the conversion F to E, to determine the amount of rat kidney to be used and the incubation time.
In these assays the influence of different inhibitors on the 11 β-HSD activity both in reductive (type 1) and oxidative (type 2) directions were assessed. In the reductive direction E is the substrate and F the product and visa versa in the case of oxidation. The method described here is for the oxidative direction.
The substrate solution contained about 50,000 cpm/ml ^3H—F in PBS-sucrose and 0.5 pM F. 1 ml of the substrate solution was added to each tube, the inhibitors were also added, at a 10 μM concentration, to each tube except to the “control” and “blank” tubes. 150 μL was added to all tubes except to the blanks, this was done to correct for the amount of ^3H[…]. The tubes were incubated for 60 minutes in a mechanically shaken water bath at 37° C. […] After incubation 50 μL of recovery was added to correct for the losses made in the next steps, containing 5000 cpm/50 μL of ^14C-E and 50 μg/50 μL of unlabelled E (to visualise the spot on the TLC-plate). The aqueous mixture was then extracted with 4 ml of ether (2×30 sec cycle, vortex mix). After freezing the aqueous phase, the ether (upper) layer was decanted into smaller tubes and evaporated at 45° C. until completely dry. The residue was then re-dissolved in 6 drops of ether and transferred to a TLC-plate. The TLC-plate was developed in chloroform:methanol (9:1 v/v) solvent system, the TLC-plate ran for about 90 minutes until the solvent front had moved about 18 cm. The position of the product E was visualised under UV-light and cut out from the TLC-plate and put into scintillation vials. Radioactivity was eluted over 5 minutes with 0.5 ml methanol. 0.5 ml of PBS- sucrose and 10 ml of Ecoscint were then added and vortex mixed before counting in the scintillation counter. Before counting the samples, two total activity vials were prepared. These contained 0.5 ml of the substrate solution, 50 μL of the recovery, 0.5 ml of methanol and 10 ml of Ecoscint. These two total activity vials were needed to determine the amount of ^14C-E and ^3H—F added in the beginning to make the calculations.
To look at the percentage of inhibition four different concentrations, 1, 5, 10 and 20 μM, were used. The method for both the rat liver, type 1 the reductive, and rat kidney, type 2 the oxidative, stay the same throughout the entire experiment.
In this experiment the influence of different inhibitors on the conversion E to F and F to E was determined. The reason why inhibition in both directions was examined was to make a comparison between the inhibitors and which type of 11 β-HSD they inhibit more. Thirty-two compounds were screened for their ability to inhibit 11 β-HSD type 1 (E to F) and type 2 (F to E). […] The percent of inhibition was calculated as the percentage of decrease in radio labelled ^3H-E and ^3H—F of product formed, compared with the control activity (the tubes without an inhibitor in it). All the results calculated are means, n=2.

Compound | melting point [°C] | inhibition at 10 µM (11 β-HSD type 1) [%] | inhibition at 10 µM (11 β-HSD type 2) [%] | further results
CC1(C)C2CC[C@]3(C)C(CC=C4[C@@H]5C[C@@](C)(C(=O)OCc6ccccc6)CC[C@]5(C)CC[C@]43C)[C@@]2(C)CC[C@H]1O (stereo partly shown) | 151 to 152 | – | – | –
CC(C)(C)OC(=O)[C@@]1(C)CC[C@]2(C)CC[C@]3(C)C(=CC(=O)C4[C@@]5(C)CC[C@@H](O)C(C)(C)C5CC[C@]43C)[C@@H]2C1 (stereo partly shown) | 95 to 97 | – | – | –
CC(C)OC(=O)[C@@]1(C)CC[C@]2(C)CC[C@]3(C)C(=CCC4[C@@]5(C)CC[C@H](O)C(C)(C)C5CC[C@]43C)[C@@H]2C1 (stereo partly shown) | 201 to 203 | – | – | –
COC(=O)[C@@]1(C)CC[C@]2(C)CC[C@]3(C)C(=CCC4[C@@]5(C)CCC(=O)C(C)(C)C5CC[C@]43C)[C@@H]2C1 (stereo partly shown) | 234 to 236 | – | – | –
CC1(C)C2CC[C@]3(C)C(CC=C4[C@@H]5C[C@@](C)(C(=O)OC6CCCCC6)CC[C@]5(C)CC[C@]43C)[C@@]2(C)CC[C@@H]1O (stereo partly shown) | 163 to 166 | – | – | –
CC1(C)C2CC[C@]3(C)C(CC=C4[C@@H]5C[C@@](C)(C(=O)OCC6CCCCC6)CC[C@]5(C)CC[C@]43C)[C@@]2(C)CC[C@@H]1O (stereo partly shown) | 133 to 134 | – | – | –
CC1(C)C2CC[C@]3(C)C(C(=O)C=C4[C@@H]5C[C@@](C)(CO)CC[C@]5(C)CC[C@]43C)[C@@]2(C)CC[C@@H]1O (stereo partly shown) [STX 349] | – | 89.7 ± 4.9 | 100 ± 0.49 | –
CC1(C)C2CC[C@]3(C)C(CC=C4[C@@H]5C[C@@](C)(CO)CC[C@]5(C)CC[C@]43C)[C@@]2(C)CC[C@@H]1O (stereo partly shown) [STX 350] | – | 13.4 ± 9.63 | 60.3 ± 3.99 | –
CC1(C)C2CC[C@]3(C)C([C@H](O)C=C4[C@@H]5C[C@@](C)(CO)CC[C@]5(C)CC[C@]43C)[C@@]2(C)CC[C@@H]1O (stereo partly shown) [STX 351] | – | 70 ± 6.39 | 94.41 ± 0.63 | –
COC(=O)[C@@]1(C)CC[C@]2(C)CC[C@]3(C)C(=CC(=O)[C@@H]4[C@@]5(C)CC[C@H](OCc6ccccc6)C(C)(C)C5CC[C@]43C)[C@@H]2C1 (stereo partly shown) [STX 359] | – | 17.8 ± 2.5 | 17 ± 3.5 | –
COC(=O)[C@@]1(C)CC[C@]2(C)CC[C@]3(C)C(=CC(=O)[C@@H]4[C@@]5(C)CC[C@H](OCc6ccc(C(C)(C)C)cc6)C(C)(C)C5CC[C@]43C)[C@@H]2C1 (stereo partly shown) [STX 360] | – | 14.7 ± 2.4 | 26.4 ± 11.6 | –
CC(=O)O[C@H]1CC[C@@]2(C)C(CC[C@]3(C)[C@@H]2C(=O)C=C2[C@@H]4C[C@@](C)(C(=O)NCc5ccccc5)CC[C@]4(C)CC[C@]23C)C1(C)C (stereo partly drawn) [STX 367, 3β-Acetoxy-18β-Glycyrrhetinic Acid Benzylamide] | – | 36.2 ± 3.69 | 27.3 ± 2.99 | –
CCOC(=O)[C@H](C)NC(=O)[C@@]1(C)CC[C@]2(C)CC[C@]3(C)C(=CC(=O)[C@@H]4[C@@]5(C)CC[C@H](O)C(C)(C)C5CC[C@]43C)[C@@H]2C1 (stereo partly drawn) [STX 369, 18β-Glycyrrhetinic Acid L-alanine Ethyl Ester Amide] | – | 24.9 ± 2.51 | 35.4 ± 12.6 | –
CC1(C)C2CC[C@]3(C)[C@H](C(=O)C=C4[C@@H]5C[C@@](C)(C(=O)NC6CC6)CC[C@]5(C)CC[C@]43C)[C@@]2(C)CC[C@@H]1O (stereo partly drawn) [STX 370, 18β-Glycyrrhetinic Acid Cyclopropylamide] | – | 89.6 ± 1.18 | 102.5 ± 0.22 | –
CC1(C)C2CC[C@]3(C)[C@H](C(=O)C=C4[C@@H]5C[C@@](C)(C(=O)NCc6ccccn6)CC[C@]5(C)CC[C@]43C)[C@@]2(C)CC[C@@H]1O (stereo partly drawn) [STX 371, 18β-Glycyrrhetinic Acid (pyridin-2-ylmethyl)-amide] | – | 57.1 ± 5.6 | 93 ± 2.75 | –
CC1(C)C2CC[C@]3(C)[C@H](C(=O)C=C4[C@@H]5C[C@@](C)(C(=O)NCCN6CCOCC6)CC[C@]5(C)CC[C@]43C)[C@@]2(C)CC[C@@H]1O (stereo partly shown) [STX 372, 18-Glycyrrhetinic Acid (2-morpholin-4-yl-ethyl)-amide] | – | 19.4 ± 7.81 | 65.8 ± 20.9 | –
Deoxycorticosterone [reference compound] | – | – | – | % INHIBITION E→F ± SD (11 β-HSD type 1; inhibitor 10 μM): 70.2 ± 1.655%; % INHIBITION F→E ± SD (11 β-HSD type 2; inhibitor 10 μM): 53.3 ± 1.273%

— US20040147494A1, “Use” (priority 2001, published 2004)
